In patent publication US9550742B2, “11-OXO-10,11-dihydrodibenzo[B,F][1,4]thiazepine S-oxide derivatives and their use as dopamine D2 receptor antagonists” (The United States of America, as Represented by the …, priority 2013, dated 2017):

Key:
DOR = DOR (Homo sapiens, UniProt P41143); test: Affinity profile panel: DOR; conditions: inhibition of binding
Alpha1D = Alpha1D (Homo sapiens, UniProt P25100); test: Affinity profile panel: Alpha1D; conditions: inhibition of binding
H1 = H1 (Homo sapiens, UniProt P35367); test: Affinity profile panel: H1; conditions: inhibition of binding
BZP Rat Brain Site = test: Affinity profile panel: BZP Rat Brain Site; conditions: inhibition of binding
D1 [1] = biological target: T1, D1 (Homo sapiens, UniProt P21728); test: Affinity profile panel: D1; conditions: inhibition of binding
T1 sequence (P21728 whole entry): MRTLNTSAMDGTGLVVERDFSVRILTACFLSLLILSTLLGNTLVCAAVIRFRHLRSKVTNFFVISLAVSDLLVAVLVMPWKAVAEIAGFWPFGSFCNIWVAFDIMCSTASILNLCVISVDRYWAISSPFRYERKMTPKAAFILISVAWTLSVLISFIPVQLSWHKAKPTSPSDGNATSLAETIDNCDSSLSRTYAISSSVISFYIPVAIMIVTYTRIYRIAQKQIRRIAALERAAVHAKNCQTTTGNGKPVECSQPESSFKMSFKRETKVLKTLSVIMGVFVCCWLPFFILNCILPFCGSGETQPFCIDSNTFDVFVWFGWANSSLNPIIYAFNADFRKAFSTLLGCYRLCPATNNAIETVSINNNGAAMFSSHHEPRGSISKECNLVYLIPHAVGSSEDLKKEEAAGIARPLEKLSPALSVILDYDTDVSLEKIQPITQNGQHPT

D2 receptor = test: PET study, displacement of the D2 receptor label [^11C]SV-130; format: in vivo, monkeys; conditions: i.v.
Method: Positron emission tomography (PET) was performed using live monkeys. A radioactive PET probe ([^11C]SV-130) for the D2 receptor was injected intravenously. PET images of coronal sections of the brain were obtained at the level of the caudate putamen. […] Monkeys were treated (i.v.) with either 1 mg/kg or 5 mg/kg ML321, a compound of Formula I (compound 55, Example 61).
The time course of PET ([^11C]SV-130) labelling of the caudate, putamen, and cerebellumum in the absence or presence of either 1 mg/kg or 5 mg/kg ML321 was plotted. […] When ML321 was injected i.v. the [^11C]SV-130 signal decreased gradually from about 20 minutes through the 100 minute observation period. The [^11C]SV-130 signal decrease was particularly dose dependent in the putamen graph.
The significance of the PET [^11C]SV-130 labelling data are two-fold. […] Second, the experiments provide direct evidence that ML321 can occupy D2 receptors in the CNS in living animals and completely block D2 receptors at a reasonable pharmacological dose.

5-HT5A = 5-HT5A (Homo sapiens, UniProt P47898); test: Affinity profile panel: 5-HT5A; conditions: inhibition of binding
D3 receptor = biological target: T2, D3 receptor (Rattus norvegicus, UniProt P19020); test: Pramipexole-induced yawning; format: in vivo; conditions: rats, 3.2 and 10 mg/kg
T2 construct: from tissue; host or cells: live rats (whole animal)
T2 sequence (P19020 whole entry): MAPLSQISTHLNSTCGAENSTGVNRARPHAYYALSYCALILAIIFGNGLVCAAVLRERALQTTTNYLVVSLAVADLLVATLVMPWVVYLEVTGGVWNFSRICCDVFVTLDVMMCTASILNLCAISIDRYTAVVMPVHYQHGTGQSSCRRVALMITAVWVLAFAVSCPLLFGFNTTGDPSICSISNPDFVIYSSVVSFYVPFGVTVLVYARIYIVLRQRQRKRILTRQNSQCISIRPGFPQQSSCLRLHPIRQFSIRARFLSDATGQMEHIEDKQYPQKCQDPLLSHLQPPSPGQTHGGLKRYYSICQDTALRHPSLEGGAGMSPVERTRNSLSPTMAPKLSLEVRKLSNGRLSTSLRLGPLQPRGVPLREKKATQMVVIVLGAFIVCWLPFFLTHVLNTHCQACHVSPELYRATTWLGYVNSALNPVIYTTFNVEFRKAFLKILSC
From the text: Pramipexole, an agonist of the D3 receptor, produces yawning when administered subcutaneously. This response is known to be mediated by the D3 receptor and not the D2 receptor (Collins, Id.).
The sumanirole-induced hypothermia and pramipexole-induced yawning experiments show ML321 can act selectively to block the D2 receptor without blocking the D3 receptor when administered to living animals. Thus, the D2 selectivity identified using cellular assays can also be seen in living animals.

Alpha2B = Alpha2B (Homo sapiens, UniProt P18089); test: Affinity profile panel: Alpha2B; conditions: inhibition of binding
Chain of Alpha2B (P18089 whole entry): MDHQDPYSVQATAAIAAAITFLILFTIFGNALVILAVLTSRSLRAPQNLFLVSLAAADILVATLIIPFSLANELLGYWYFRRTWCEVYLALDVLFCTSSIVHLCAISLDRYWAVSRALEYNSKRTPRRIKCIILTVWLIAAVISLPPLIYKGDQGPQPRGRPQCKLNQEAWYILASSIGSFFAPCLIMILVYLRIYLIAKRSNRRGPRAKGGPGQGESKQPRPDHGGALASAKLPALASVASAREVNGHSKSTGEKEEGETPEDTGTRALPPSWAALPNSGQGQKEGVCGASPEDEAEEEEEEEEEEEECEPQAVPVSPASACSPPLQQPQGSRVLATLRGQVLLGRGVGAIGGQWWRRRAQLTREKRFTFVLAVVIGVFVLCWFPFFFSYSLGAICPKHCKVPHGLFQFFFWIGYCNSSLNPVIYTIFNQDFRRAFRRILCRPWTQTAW

5-HT3 = 5-HT3 (Homo sapiens, UniProt P46098); test: Affinity profile panel: 5-HT3; conditions: inhibition of binding
Beta1 = Beta1 (Homo sapiens, UniProt P08588); test: Affinity profile panel: Beta1; conditions: inhibition of binding
KOR = KOR (Homo sapiens, UniProt P41145); test: Affinity profile panel: KOR; conditions: inhibition of binding
Chain of KOR (P41145 whole entry): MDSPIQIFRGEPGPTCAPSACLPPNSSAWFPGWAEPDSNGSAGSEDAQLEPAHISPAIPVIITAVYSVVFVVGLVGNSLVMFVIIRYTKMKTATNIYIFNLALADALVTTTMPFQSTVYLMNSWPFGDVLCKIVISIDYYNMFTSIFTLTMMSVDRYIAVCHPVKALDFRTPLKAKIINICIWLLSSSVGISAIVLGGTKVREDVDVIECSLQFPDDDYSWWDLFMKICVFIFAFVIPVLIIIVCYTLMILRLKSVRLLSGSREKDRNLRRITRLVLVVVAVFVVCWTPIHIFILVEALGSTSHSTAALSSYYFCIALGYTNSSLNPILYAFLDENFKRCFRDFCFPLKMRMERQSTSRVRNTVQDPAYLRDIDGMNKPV

Sigma 1 = Sigma 1 (Homo sapiens, UniProt Q99720); test: Affinity profile panel: Sigma 1; conditions: inhibition of binding
D3 = D3 (Homo sapiens, UniProt P35462); test: Affinity profile panel: D3; conditions: inhibition of binding
5-HT2B = 5-HT2B (Homo sapiens, UniProt P41595); test: Affinity profile panel: 5-HT2B; conditions: inhibition of binding
From the text: (§1) Antipsychotic drugs (depending on the specific drug) typically interact with a range of serotonergic, adrenergic, histaminergic, and muscarinic receptors.

NET = NET (Homo sapiens, UniProt P23975); test: Affinity profile panel: NET; conditions: inhibition of binding
From the text: as §1

M3 = M3 (Homo sapiens, UniProt P20309); test: Affinity profile panel: M3; conditions: inhibition of binding
M2 = M2 (Homo sapiens, UniProt P08172); test: Affinity profile panel: M2; conditions: inhibition of binding
Chain of M2 (P08172 whole entry): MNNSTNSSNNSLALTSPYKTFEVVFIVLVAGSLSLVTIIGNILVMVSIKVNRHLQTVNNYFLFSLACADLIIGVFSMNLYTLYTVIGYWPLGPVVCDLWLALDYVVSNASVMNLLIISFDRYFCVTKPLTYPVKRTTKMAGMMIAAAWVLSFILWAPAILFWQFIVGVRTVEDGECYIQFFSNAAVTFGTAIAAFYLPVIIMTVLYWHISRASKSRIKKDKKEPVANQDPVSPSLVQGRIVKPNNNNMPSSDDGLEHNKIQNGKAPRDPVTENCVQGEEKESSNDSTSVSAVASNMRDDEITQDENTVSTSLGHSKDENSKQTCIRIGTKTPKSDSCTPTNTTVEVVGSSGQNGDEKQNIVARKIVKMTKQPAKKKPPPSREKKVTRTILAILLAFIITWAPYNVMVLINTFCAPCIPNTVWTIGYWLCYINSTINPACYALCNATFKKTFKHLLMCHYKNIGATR

5-HT7 = 5-HT7 (Homo sapiens, UniProt P34969); test: Affinity profile panel: 5-HT7; conditions: inhibition of binding
MOR = MOR (Homo sapiens, UniProt P35372); test: Affinity profile panel: MOR; conditions: inhibition of binding
Beta3 = Beta3 (Homo sapiens, UniProt P13945); test: Affinity profile panel: Beta3; conditions: inhibition of binding
M4 = M4 (Homo sapiens, UniProt P08173); test: Affinity profile panel: M4; conditions: inhibition of binding
D1 [2] = biological target: T1, D1; test: D1 binding assay (FIG. 2B)
H2 = H2 (Homo sapiens, UniProt P25021); test: Affinity profile panel: H2; conditions: inhibition of binding
[3] = biological target: D3 dopamine receptor (DAR) (Homo sapiens, UniProt P35462); test: D3 beta-arrestin functional assay (PathHunter, CHO); format: cell-based; conditions: dose response curve; read-out: D3 β-arrestin assay AC50
From the text: A CHO cell line was engineered to overexpress D3 dopamine receptor (DAR) and fused with a small 42-amino acid fragment of β-gal called ProLink™. In addition, these cells stably express a fusion protein of β-arrestin and a larger N-terminal deletion mutant of β-galactosidase (“enzyme acceptor”). When DAR is activated by dopamine, it stimulates binding of β-arrestin to ProLink-tagged DARs, and the two complementary parts of β-galactosidase form a functional enzyme. When substrate (PathHunter® Detection reagent) is added, βgalactosidase hydrolyzes it and generates a chemiluminescent signal.
For the 1,536-well assay, D3 PathHunter® β-arrestin cells were seeded at 2,100 cells/well in 3 μL/well media (DiscoveRx Plating Reagent 2) with MultiDrop Combi dispenser (Thermo Scientific, Logan, Utah) onto white tissue culture treated 1,536-well Aurora plates (Brooks Automation, Chelmsford, Mass.) and allowed to attach overnight at 37° C., 5% CO2. Next, 23 nL/well of compound solutions in DMSO were added with a pintool transfer (Kalypsis, San Diego, Calif.). The cells were stimulated by compounds for 90 minutes at 37° C., 5% CO2, after which 1.5 μL/well of DiscoveRx detection reagent was added with BioRAPTR FRD dispenser. […] The plates were incubated at ambient temperature for 1 h, and the luminescent signal was read on ViewLux plate reader (PerkinElmer, Waltham, Mass.).

DAT = DAT (Homo sapiens, UniProt Q01959); test: Affinity profile panel: DAT; conditions: inhibition of binding
Chain of DAT (Q01959 whole entry, species assumed): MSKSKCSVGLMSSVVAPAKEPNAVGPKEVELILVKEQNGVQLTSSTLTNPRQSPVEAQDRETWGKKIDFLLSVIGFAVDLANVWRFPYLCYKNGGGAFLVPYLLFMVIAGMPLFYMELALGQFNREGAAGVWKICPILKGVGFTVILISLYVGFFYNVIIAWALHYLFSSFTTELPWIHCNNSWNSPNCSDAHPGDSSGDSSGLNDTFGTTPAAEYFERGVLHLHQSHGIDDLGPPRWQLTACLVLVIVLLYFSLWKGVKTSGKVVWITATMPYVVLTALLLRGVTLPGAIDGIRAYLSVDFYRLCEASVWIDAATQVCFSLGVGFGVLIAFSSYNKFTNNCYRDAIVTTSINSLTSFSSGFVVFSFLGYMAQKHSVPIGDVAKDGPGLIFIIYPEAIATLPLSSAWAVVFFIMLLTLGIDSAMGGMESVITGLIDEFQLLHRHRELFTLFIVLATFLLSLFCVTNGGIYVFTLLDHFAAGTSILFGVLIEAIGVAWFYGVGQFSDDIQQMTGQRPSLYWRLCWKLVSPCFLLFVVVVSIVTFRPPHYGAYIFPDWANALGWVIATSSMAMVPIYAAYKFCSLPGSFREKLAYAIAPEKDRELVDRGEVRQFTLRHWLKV
From the text: as §1

5-HT2A = 5-HT2A (Homo sapiens, UniProt P28223); test: Affinity profile panel: 5-HT2A; conditions: inhibition of binding
Alpha2A = Alpha2A (Homo sapiens, UniProt P08913); test: Affinity profile panel: Alpha2A; conditions: inhibition of binding
5-HT6 = 5-HT6 (Homo sapiens, UniProt P50406); test: Affinity profile panel: 5-HT6; conditions: inhibition of binding
Chain of 5-HT6 (P50406 whole entry, species assumed): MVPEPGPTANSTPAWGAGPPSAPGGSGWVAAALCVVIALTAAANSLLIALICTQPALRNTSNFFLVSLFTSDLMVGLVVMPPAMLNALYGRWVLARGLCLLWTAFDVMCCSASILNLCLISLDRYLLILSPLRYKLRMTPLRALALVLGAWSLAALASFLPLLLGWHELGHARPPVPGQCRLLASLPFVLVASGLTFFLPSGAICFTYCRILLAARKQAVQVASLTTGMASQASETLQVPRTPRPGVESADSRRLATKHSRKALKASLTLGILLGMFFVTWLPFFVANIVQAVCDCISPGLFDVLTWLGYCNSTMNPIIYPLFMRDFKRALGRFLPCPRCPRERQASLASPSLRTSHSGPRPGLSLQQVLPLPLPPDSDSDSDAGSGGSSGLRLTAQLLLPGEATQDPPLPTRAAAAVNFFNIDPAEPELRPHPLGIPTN

5-HT1A = 5-HT1A (Homo sapiens, UniProt P08908); test: Affinity profile, panel of 46 GPCRs and related proteins: 5-HT1A; conditions: inhibition of binding
GABAA = test: Affinity profile panel: GABAA; conditions: inhibition of binding
Sigma 2 = Sigma 2 (Homo sapiens, UniProt Q5BJF2); test: Affinity profile panel: Sigma 2; conditions: inhibition of binding
Chain of Sigma 2 (Q5BJF2 whole entry): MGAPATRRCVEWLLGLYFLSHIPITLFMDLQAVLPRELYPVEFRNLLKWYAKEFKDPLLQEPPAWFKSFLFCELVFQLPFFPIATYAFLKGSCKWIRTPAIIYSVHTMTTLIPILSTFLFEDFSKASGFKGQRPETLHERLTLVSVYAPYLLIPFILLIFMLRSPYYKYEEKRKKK

5-HT1D = 5-HT1D (Homo sapiens, UniProt P28221); test: Affinity profile panel: 5-HT1D; conditions: inhibition of binding
Chain of 5-HT1D (P28221 whole entry, species assumed): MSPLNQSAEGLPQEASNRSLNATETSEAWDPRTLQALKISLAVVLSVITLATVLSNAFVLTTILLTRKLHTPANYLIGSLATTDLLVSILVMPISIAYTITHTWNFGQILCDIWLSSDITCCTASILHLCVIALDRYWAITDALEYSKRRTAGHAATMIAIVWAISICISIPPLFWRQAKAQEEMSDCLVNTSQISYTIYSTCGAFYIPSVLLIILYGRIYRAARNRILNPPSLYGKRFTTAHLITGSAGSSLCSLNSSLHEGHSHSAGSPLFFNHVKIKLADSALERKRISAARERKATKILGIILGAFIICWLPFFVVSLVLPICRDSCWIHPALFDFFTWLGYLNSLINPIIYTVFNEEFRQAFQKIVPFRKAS

D4 = D4 (Homo sapiens, UniProt P21917); test: D4 binding assay (FIG. 2B)
Alpha1B = Alpha1B (Homo sapiens, UniProt P35368); test: Affinity profile panel: Alpha1B; conditions: inhibition of binding
Chain of Alpha1B (P35368 whole entry): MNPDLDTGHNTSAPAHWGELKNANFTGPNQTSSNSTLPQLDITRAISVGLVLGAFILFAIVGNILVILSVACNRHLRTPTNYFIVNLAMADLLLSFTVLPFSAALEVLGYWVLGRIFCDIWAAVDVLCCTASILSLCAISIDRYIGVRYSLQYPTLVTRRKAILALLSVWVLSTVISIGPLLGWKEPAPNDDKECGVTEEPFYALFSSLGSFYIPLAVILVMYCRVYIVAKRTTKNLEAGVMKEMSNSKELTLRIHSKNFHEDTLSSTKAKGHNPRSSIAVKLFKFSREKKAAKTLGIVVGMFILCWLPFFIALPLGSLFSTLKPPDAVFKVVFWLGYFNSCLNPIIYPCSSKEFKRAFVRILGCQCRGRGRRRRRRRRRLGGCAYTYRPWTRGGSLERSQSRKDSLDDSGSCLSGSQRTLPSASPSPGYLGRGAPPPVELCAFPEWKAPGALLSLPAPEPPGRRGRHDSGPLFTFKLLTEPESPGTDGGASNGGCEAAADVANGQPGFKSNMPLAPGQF

Chain of Alpha1D (P25100 whole entry): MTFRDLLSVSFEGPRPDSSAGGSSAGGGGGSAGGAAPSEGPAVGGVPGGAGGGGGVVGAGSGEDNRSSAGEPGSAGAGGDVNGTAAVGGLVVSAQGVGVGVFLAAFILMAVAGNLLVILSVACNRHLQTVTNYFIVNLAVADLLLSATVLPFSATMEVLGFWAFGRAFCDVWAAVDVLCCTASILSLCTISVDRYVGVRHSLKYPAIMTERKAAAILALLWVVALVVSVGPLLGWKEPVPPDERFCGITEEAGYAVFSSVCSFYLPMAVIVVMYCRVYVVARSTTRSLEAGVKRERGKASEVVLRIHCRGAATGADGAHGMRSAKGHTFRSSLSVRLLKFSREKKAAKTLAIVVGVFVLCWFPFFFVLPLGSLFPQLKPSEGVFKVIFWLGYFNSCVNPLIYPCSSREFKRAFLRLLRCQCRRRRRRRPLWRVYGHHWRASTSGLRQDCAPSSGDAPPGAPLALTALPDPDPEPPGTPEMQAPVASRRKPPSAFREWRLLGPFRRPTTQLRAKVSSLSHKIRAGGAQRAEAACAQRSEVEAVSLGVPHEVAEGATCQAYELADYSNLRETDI

CN1C(=O)c2ccccc2[S@+]([O-])c2ccc(C(=O)NCCc3cccs3)cc21 [Compound 55, 10-Methyl-11-oxo-N-(2-(thiophen-2-yl)ethyl)-10,11-dihydrodibenzo[b,f][1,4]thiazepine-8-carboxamide 5-(S)-oxide] was tested, and the “Inhibition (%) DOR” value (DOR) was −23.6%, the “Inhibition (%) Alpha1D” value (Alpha1D) was −22.6% and the “Inhibition (%) H1” value (H1) was 41.6%. The “Inhibition (%) BZP Rat Brain Site” value (BZP Rat Brain Site) was 0.5%, the “Inhibition (%) D1” value (D1 [1]) was −6.8% and the “Blocking of [^11C]SV-130 D2 PET probe binding in the caudate putamen” value (D2 receptor; monkeys, 1 mg/kg or 5 mg/kg, images 20 to 100 minutes post injection) was “blocks the binding of the D2 receptor PET probe in the caudate putamen in a dose-dependent fashion”. For the same compound, the “Blocking of [^11C]SV-130 labeling” value (D2 receptor; monkeys, 5 mg/kg) was “almost completely blocked”, the Blood-brain barrier crossing (D2 receptor; primates, PET evidence) was “can cross the blood-brain barrier in primates” and the “Inhibition (%) 5-HT5A” value (5-HT5A) was 9.5%. For the same compound, the “Effect on pramipexole-induced yawning” value (D3 receptor) was “no effect on pramipexole-induced yawning”, the “Inhibition (%) Alpha2B” value (Alpha2B) was 31.2% and the “Inhibition (%) 5-HT3” value (5-HT3) was 8.5%. For the same compound, the “Inhibition (%) Beta1” value (Beta1) was 12.6%, the “Inhibition (%) KOR” value (KOR) was 18.2% and the “Inhibition (%) Sigma 1” value (Sigma 1) was 17.5%. The “Inhibition (%) D3” value (D3) was 59.1%, the “Inhibition (%) 5-HT2B” value (5-HT2B) was 40.1% and the “Inhibition (%) NET” value (NET) was 8.9%. The “Inhibition (%) M3” value (M3) was 5.2%, the “Inhibition (%) M2” value (M2) was −1.7% and the “Inhibition (%) 5-HT7” value (5-HT7) was 53.3%. The “Inhibition (%) MOR” value (MOR) was 5.7%, the “Inhibition (%) Beta3” value (Beta3) was 6.6% and the “Inhibition (%) M4” value (M4) was 2.4%. The Ki (D1 [2]) was 67.1 µM, the “Inhibition (%) H2” value (H2) was −9.2% and the AC50 [3] was 12.9 µM. The “Inhibition (%) DAT” value (DAT) was −5.3%, the “Inhibition (%) 5-HT2A” value (5-HT2A) was 46.3% and the “Inhibition (%) Alpha2A” value (Alpha2A) was 7.3%. For the same compound, the “Inhibition (%) 5-HT6” value (5-HT6) was −15.6%, the “Inhibition (%) 5-HT1A” value (5-HT1A) was 8.2% and the “Inhibition (%) GABAA” value (GABAA) was 10.6%. The “Inhibition (%) Sigma 2” value (Sigma 2) was −16.5%, the “Inhibition (%) 5-HT1D” value (5-HT1D) was 13.1% and the Ki (D4) was 8.48 µM. For the same compound, the “Inhibition (%) Alpha1B” value (Alpha1B) was −0.2%.
